Here are results for 3 compounds from US7778779B2, “Method of identifying a chemical entity which is a hydroxylase modulator” (Isis Innovation Limited, priority 2002, dated 2010).

In general, IC50 refers to the concentration that gives 50% inhibition. A higher IC50 goes with weaker potency in that assay.

Common to all, as to type: biochemical
The target of one assay is T1, FIH (Homo sapiens, UniProt Q9NWT6).
T1 construct: His6 (N, cleaved yes); made in house; host or cells: Escherichia coli BL21(DE3), pET28a(+)
The assay can be described thus: kinetic analyses of N-oxaloyl amino acid inhibitors of FIH. As to conditions: for IC50: inhibition of FIH, kinetic analyses.

In assay [1] the test system is procollagen prolyl-hydroxylase. The assay can be described thus: inhibition of procollagen prolyl-hydroxylase by N-oxaloylalanine enantiomers. Particulars: S- versus R-enantiomer. An excerpt: (§1) Such inhibitors may or may not chelate to an active site metal.
In a further assay the test system is PHD isozymes. The assay can be described thus: inhibition of PHD isozymes by N-oxaloylalanine enantiomers. Particulars: S- versus R-enantiomer.
Source text: as §1

T1 sequence (Q9NWT6 whole entry): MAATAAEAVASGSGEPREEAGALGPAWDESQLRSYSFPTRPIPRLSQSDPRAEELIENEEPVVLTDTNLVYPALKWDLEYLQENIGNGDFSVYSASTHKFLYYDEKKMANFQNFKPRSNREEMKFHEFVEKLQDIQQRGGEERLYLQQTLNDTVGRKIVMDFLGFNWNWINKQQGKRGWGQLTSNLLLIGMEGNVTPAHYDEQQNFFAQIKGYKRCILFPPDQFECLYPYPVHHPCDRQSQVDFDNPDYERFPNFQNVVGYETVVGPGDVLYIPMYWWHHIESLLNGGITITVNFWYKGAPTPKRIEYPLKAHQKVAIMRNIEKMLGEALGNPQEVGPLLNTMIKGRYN

Compound `C[C@H](NC(=O)C(=O)O)C(=O)O` (single isomer, unassigned) [R-enantiomer, N-oxaloylalanine] had an IC50 on FIH of 400 µM.
As to `O=C(O)CNC(=O)C(=O)O` [NOG, N-oxaloylglycine, reference compound], on FIH (used as 2OG analogue in co-crystallisation), the “inhibition of FIH, in words” value is reported as “FIH inhibitor”.
As for `C[C@H](NC(=O)C(=O)O)C(=O)O` [S-enantiomer, N-oxaloylalanine], the “relative potency of enantiomers (reversed selectivity)” value (in assay [1]; in the assay on PHD isozymes) was “more potent” throughout. The same compound came in with an IC50 against FIH of 2500 µM.
